Test results published in paper PMC10113987, “A tool for nuclear imaging of the SARS-CoV-2 entry receptor: molecular model and preclinical development of ACE2-selective radiopeptides” (EJNMMI Research, 2023).
Positions of bridges follow the written chain, without caps; N, C: chain ends. Residues, ends and D or L forms follow the SMILES beside them. *: point of attachment. DOTA = O=C(O)CN1CCN(CC(=O)O)CCN(CC(=O)*)CCN(CC(=O)O)CC1; NODAGA = O=C(O)CN1CCN(CC(=O)O)CCN(C(CCC(=O)*)C(=O)O)CC1; Ahx = NCCCCCC(=O)O

Tests used:
[1] = In vitro stability in mouse blood plasma (TLC); format: in vitro ADME; details: 37 °C
Protocol: The ^67Ga-labeled DX600-radiopeptides (20 MBq/nmol) were incubated in human and mouse plasma (10 MBq/200 µL), respectively, at 37 °C. Aliquots were taken at variable time points up to 24 h for analysis using reversed phase thin layer chromatography (TLC) with citrate buffer (0.1 M, pH 5.5) as a mobile phase. Images of the TLC plates were obtained using a storage phosphor system (Cyclone Plus, PerkinElmer) and quantified using the OptiQuant software (version 5.0, Bright Instrument Co Ltd., PerkinElmer™) (Supplementary Information).
The radiopeptides were prepared and TLC experiments were performed immediately after radiolabeling by applying the diluted radiopeptides in saline (1 µL; ~0.05 MBq) and [^67Ga]GaCl3 solution (1 µL; ~0.05 MBq) on the TLC plates. The radiopeptides were incubated in mouse or human plasma (10 MBq/200 µL) at 37° C. TLC was performed with an aliquot of the plasma samples at the given timepoints (30 min, 1 h, 3 h and 24 h). The TLC plates were exposed to a phosphor screen followed by development using a storage phosphor system (Cyclone Plus, PerkinElmer). The quantification of the signals was carried out using the OptiQuant software (version 5.0, Bright Instrument Co Ltd., PerkinElmer^TM). The obtained chromatograms were analyzed by determination of the peak area of the radiolabeled peptide, the released gallium-67 as well as degradation products of unknown structure. The quantity of the intact product was expressed as percentage of the sum of integrated peak areas of the entire chromatogram.

[2] = system: FVB mice; assay: In vivo stability in immunocompetent FVB mice (TLC of blood plasma, urine, kidneys); parameters: species or system mouse; details: 1 h p.i.; for Radiometabolites in kidney homogenates: fraction of accumulated activity
Protocol: In order to investigate the stability of the radiopeptides, the ^67Ga-labeled DX600 peptides (20 MBq/nmol) were tested in immunocompetent FVB mice (10 MBq in 100 μL per mouse). Before sacrificing, blood was collected from each mouse 1 h after injection of the radiopeptides. After centrifugation, the blood plasma was analyzed using reversed phase TLC with citrate buffer (0.1 M, pH 5.5) as a mobile phase. The kidneys were collected and processed to investigate the presence of intact radiopeptides and potential metabolites using the same TLC system. The analysis of the chromatograms was performed as described for the in vitro plasma stability (Additional file 1).
Methods: Immunocompetent FVB mice were injected with the DX600-based radiopeptides (n=2). One hour later, urine was collected and blood was sampled from the retrobulbar vein followed by centrifugation (10 min, 200 rcf). A drop of urine and blood plasma was analyzed using the TLC method described for in vitro stability experiments above (reversed phase as stationary phase and citrate buffer pH 5.5 as mobile phase). The data were also confirmed using normal phase TLC. Kidneys of mice were collected, cut into small pieces, homogenized in 200 μL buffer solution (ice-cold methanol containing 0.025% NH4OH) and centrifuged (5 min, 2300 rcf, 4° C) as described by Boss et al.. An aliquot of the supernatant of each sample was developed using the same TLC method as for urine and blood plasma samples. The TLC plates were exposed to a phosphor screen which was afterwards read using a storage phosphor system (Cyclone Plus, PerkinElmer). The quantification of the signals was carried out using the OptiQuant software (version 5.0, Bright Instrument Co Ltd., PerkinElmer^TM). The obtained chromatograms were analyzed by determination of the peak area of the radiolabeled peptide, the released gallium-67 as well as degradation products of unknown structure. The quantity of the intact product was expressed as percentage of the sum of integrated peak areas of the entire chromatogram.

[3] = Stability of the radiopeptide formulated in saline (HPLC); format: physicochemical; details: for Intact radiopeptide: 0.9% NaCl, room temperature, 20 MBq/nmol, 10 MBq/100 µL
Protocol: The purified [^67Ga]GaCl3 in HCl (~ 0.1 M) was added to a sodium acetate solution (0.5 M, pH 8) to obtain a buffered system of pH ~ 4. After adding the respective peptide (DOTA-DX600, NODAGA-DX600, HBED-CC-DX600 or DOTA-BPP9a) in a quantity to obtain the desired molar activity (5–20 MBq/nmol), the reaction mixture was incubated at 95 °C for 15 min. Quality control was performed using a Merck Hitachi LaChrom HPLC system (Additional file 1). The radiopeptides were used directly for in vitro and in vivo studies without further purification steps. The stability of the radiopeptides (20 MBq/nmol) formulated in 0.9% NaCl (10 MBq/100 µL) was assessed at room temperature (Additional file 1). The highest molar activity used in these studies was 20 MBq/nmol which means that one of 73–74 molecules was labeled with gallium-67. Nevertheless, the labeling efficiency of the DX600-based peptides was assessed using the highest possible molar activity that would still allow for the preparation of the DX600-based radiopeptide at a radiochemical purity of > 95% (Additional file 1).
Methods: The integrity of the radiopeptides (20 MBq/nmol), formulated in 0.9% NaCl (10 MBq/100 µL) and incubated at room temperature, was determined by HPLC using the system described above. The HPLC chromatograms were analyzed by determination of the peak area of the radiolabeled peptide, the released gallium-67, as well as degradation products of unknown structure. The quantity of the intact product was expressed as percentage of the sum of integrated peak areas of the entire chromatogram and set in relation to the original value determined at t = 0, which was set as 100%.

[4] = target: T1, ACE (Homo sapiens, UniProt P12821); assay: ACE-binding affinity (saturation binding on HEK-ACE cells); details: on ice, 1 h
T1 construct: host or cells: HEK-293
T1 sequence (P12821 30-1306): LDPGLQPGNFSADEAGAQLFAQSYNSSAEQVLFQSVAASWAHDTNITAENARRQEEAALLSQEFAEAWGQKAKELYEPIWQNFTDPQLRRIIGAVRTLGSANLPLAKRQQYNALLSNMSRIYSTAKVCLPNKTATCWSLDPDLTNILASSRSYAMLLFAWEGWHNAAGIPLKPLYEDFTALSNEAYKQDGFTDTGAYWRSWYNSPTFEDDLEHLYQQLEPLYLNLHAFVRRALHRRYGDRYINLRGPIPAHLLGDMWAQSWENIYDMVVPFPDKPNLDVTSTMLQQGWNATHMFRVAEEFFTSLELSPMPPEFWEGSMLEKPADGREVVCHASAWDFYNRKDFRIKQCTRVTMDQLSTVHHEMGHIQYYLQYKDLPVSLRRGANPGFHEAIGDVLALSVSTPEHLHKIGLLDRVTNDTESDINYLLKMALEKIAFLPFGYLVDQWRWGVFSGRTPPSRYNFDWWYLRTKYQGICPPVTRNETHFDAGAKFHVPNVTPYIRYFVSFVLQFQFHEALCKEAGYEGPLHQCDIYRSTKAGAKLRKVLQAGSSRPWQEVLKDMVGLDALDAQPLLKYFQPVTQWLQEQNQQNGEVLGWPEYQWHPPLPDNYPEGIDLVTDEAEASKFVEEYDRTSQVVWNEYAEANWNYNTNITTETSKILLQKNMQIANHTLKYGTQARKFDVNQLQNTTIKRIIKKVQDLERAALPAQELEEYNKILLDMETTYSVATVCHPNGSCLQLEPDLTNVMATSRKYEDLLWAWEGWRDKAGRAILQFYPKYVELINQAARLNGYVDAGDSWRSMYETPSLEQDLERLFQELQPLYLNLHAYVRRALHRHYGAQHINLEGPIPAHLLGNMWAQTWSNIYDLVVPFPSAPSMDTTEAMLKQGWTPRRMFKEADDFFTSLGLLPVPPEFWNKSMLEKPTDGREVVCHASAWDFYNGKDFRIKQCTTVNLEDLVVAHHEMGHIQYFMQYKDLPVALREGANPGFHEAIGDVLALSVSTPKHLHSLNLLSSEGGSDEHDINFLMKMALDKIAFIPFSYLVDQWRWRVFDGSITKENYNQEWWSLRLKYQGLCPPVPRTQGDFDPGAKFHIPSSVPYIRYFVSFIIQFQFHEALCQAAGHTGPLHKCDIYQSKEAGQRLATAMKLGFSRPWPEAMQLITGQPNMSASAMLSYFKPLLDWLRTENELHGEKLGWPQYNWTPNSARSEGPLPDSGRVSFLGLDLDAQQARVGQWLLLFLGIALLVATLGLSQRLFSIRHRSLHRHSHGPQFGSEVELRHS
Protocol: In order to determine the KD values of the DX600-based radiopeptides and [^67Ga]Ga-DOTA-BPP9a, HEK-ACE2 and HEK-ACE cells were seeded in 48-well-plates allowing adhesion and growth overnight. The cell samples were incubated with increasing concentrations (1‒2000 nM) of the radiopeptides (5 MBq/nmol) on ice. Some of the cell samples were co-incubated with an excess of cyclo-DX600 or lisinopril (20 µM, 10 nmol) to block ACE2 or ACE, respectively, enabling the determination of non-specific binding (Additional file 1). After 1 h incubation, the cells were rinsed with PBS and lysed with NaOH (1 M, 600 µL) to count the activity in a γ-counter. The KD values were determined by plotting specific binding (total binding minus unspecific binding) against the molar concentration of the added radiopeptide. A nonlinear regression analysis was performed using GraphPad Prism software (version 8.3.1).

| Compound | Intact radiopeptide in mouse blood plasma ([1]; 3 h) | Intact radiopeptide in mouse blood plasma ([1]; 24 h) | Radiometabolites in kidney homogenates [2] | Intact radiopeptide ([3]; 1 h) | Intact radiopeptide ([3]; 3 h) | Intact radiopeptide ([3]; 24 h) | Kd [4] | Degradation products (partial radiolysis) ([3]; saline, 24 h incubation) | Release of gallium-67 in mouse blood plasma ([1]; 3 h) | Release of gallium-67 in mouse blood plasma ([1]; 24 h) | Intact radiopeptide in mouse blood plasma ([1]; first hour) | Release of gallium-67 from the chelator in blood plasma [2] |
| --- | --- | --- | --- | --- | --- | --- | --- | --- | --- | --- | --- | --- |
| CC(=O)N[C@@H](CCCCNC(=O)CCC(C(=O)O)N1CCN(CC(=O)O)CCN(CC(=O)O)CC1)C(=O)NCC(=O)N[C@@H](CC(=O)O)C(=O)N[C@@H](Cc1ccc(O)cc1)C(=O)N[C@@H](CO)C(=O)N[C@@H](Cc1c[nH]cn1)C(=O)N[C@H]1CSSC[C@@H](C(=O)N[C@H](C(=O)N[C@@H](Cc2ccc(O)cc2)C(=O)N2CCC[C@H]2C(=O)N[C@@H](CC(=O)O)C(=O)N2CCC[C@H]2C(=O)N[C@@H](CCC(=O)O)C(=O)NCC(=O)NCC(=O)NCC(N)=O)[C@@H](C)O)NC(=O)[C@H](CCCCN)NC(=O)[C@H](Cc2c[nH]c3ccccc23)NC(=O)[C@H](Cc2c[nH]c3ccccc23)NC(=O)[C@@H]2CCCN2C(=O)[C@H](Cc2ccc(O)cc2)NC(=O)[C@H](Cc2ccc(O)cc2)NC(=O)[C@H](CCCNC(=N)N)NC(=O)[C@H](CC(C)C)NC(=O)[C@@H]2CCCN2C(=O)[C@H](CO)NC1=O (stereo partly drawn) [[^67Ga]Ga-NODAGA-DX600, metal not drawn] (Ac-K(NODAGA)GDYSHCSPLRYYPWWKCTYPDPEGGG-NH2; disulfide 7-18) | 97 ± 1% | 36 ± 7% | ~ 90% | ≥99% | ≥99% | ≥99% | – | – | – | – | – | – |
| CC[C@H](C)[C@H](NC(=O)[C@H](CCC(N)=O)NC(=O)[C@@H]1CCCN1C(=O)[C@H](CCCNC(=N)N)NC(=O)[C@@H]1CCCN1C(=O)[C@H](Cc1c[nH]c2ccccc12)NC(=O)[C@H](CCC(=O)O)NC(=O)CCCCCNC(=O)CCCCCNC(=O)CN1CCN(CC(=O)O)CCN(CC(=O)O)CCN(CC(=O)O)CC1)C(=O)N1CCC[C@H]1C(=O)N1CCC[C@H]1C(=O)O [[^67Ga]Ga-DOTA-BPP9a, metal not drawn] ({DOTA-Ahx-Ahx}-EWPRPQIPP-OH) | – | – | – | – | – | – | 693 ± 354 nM | ~ 11% | – | – | – | – |
| CC(=O)N[C@@H](CCCCNC(=O)CN1CCN(CC(=O)O)CCN(CC(=O)O)CCN(CC(=O)O)CC1)C(=O)NCC(=O)N[C@@H](CC(=O)O)C(=O)N[C@@H](Cc1ccc(O)cc1)C(=O)N[C@@H](CO)C(=O)N[C@@H](Cc1c[nH]cn1)C(=O)N[C@H]1CSSC[C@@H](C(=O)N[C@H](C(=O)N[C@@H](Cc2ccc(O)cc2)C(=O)N2CCC[C@H]2C(=O)N[C@@H](CC(=O)O)C(=O)N2CCC[C@H]2C(=O)N[C@@H](CCC(=O)O)C(=O)NCC(=O)NCC(=O)NCC(N)=O)[C@@H](C)O)NC(=O)[C@H](CCCCN)NC(=O)[C@H](Cc2c[nH]c3ccccc23)NC(=O)[C@H](Cc2c[nH]c3ccccc23)NC(=O)[C@@H]2CCCN2C(=O)[C@H](Cc2ccc(O)cc2)NC(=O)[C@H](Cc2ccc(O)cc2)NC(=O)[C@H](CCCNC(=N)N)NC(=O)[C@H](CC(C)C)NC(=O)[C@@H]2CCCN2C(=O)[C@H](CO)NC1=O [[^67Ga]Ga-DOTA-DX600, metal not drawn] (Ac-K(DOTA)GDYSHCSPLRYYPWWKCTYPDPEGGG-NH2; disulfide 7-18) | 95 ± 3% | 20 ± 13% | ~ 93% | – | – | – | – | – | ~ 4% | > 50% | intact | 3.5 % of the total activity determined in the blood |
